Experimental data from US7964221B2, “Composition and methods of use of an immunomodulator” (priority 2006, dated 2011).

How the values were obtained:
CD4 cells = assay: 32-week three-arm trial in HIV-infected individuals: CD4 cell counts; assay type: in vivo, human; settings: for Change in CD4 cell counts from baseline: OT analysis
From the text: (§1) All participants were antiretroviral drug naive.
(§2) Laboratory abnormalities were graded.

[1] = 32-week three-arm HIV trial: body weight; assay type: in vivo, human
From the text: as §1, §2

zidovudine (AZT), lamividine (3TC), and efavirenz (EFV) [AZT/3TC/EFV]
Change in CD4 cell counts from baseline (CD4 cells; 12 weeks of treatment): +122 cells/mm^3 | Change in CD4 cell counts from baseline (CD4 cells; 20 weeks): +108 cells/mm^3 | Change in CD4 cell counts from baseline (CD4 cells; 32 weeks): +102 cells/mm^3 | CD4 counts After (CD4 cells; after therapy): 463 | CD4 counts Before (CD4 cells; before therapy (baseline)): 361 | Body weight After ([1]; after therapy): 65.6 | Mean values for baseline body weight ([1]; baseline, mean ± SD): 64.2 ± 8.9 kg | Body weight Before ([1]; before therapy): 64.2 | Mean weight values at the end of study ([1]; end of study): 65.6 ± 7.3 kg | Average weight gain ([1]; week 32): 1.4 kg
